Drawing on ChEMBL document CHEMBL1140269, “Amino-substituted heterocycles as isosteres of trans-cinnamides: design and synthesis of heterocyclic biaryl sulfides as potent antagonists of LFA-1/ICAM-1 binding” (Bioorg Med Chem Lett, 2005), this text covers IC50 for 57 compounds.

Values joined by “and” are separate entries in the source; they are usually repeats but may differ in a detail not shown here. Identical values can stand only once.

Intercellular adhesion molecule (ICAM-1), Integrin alpha-L/beta-2, sequence (P20701 whole entry): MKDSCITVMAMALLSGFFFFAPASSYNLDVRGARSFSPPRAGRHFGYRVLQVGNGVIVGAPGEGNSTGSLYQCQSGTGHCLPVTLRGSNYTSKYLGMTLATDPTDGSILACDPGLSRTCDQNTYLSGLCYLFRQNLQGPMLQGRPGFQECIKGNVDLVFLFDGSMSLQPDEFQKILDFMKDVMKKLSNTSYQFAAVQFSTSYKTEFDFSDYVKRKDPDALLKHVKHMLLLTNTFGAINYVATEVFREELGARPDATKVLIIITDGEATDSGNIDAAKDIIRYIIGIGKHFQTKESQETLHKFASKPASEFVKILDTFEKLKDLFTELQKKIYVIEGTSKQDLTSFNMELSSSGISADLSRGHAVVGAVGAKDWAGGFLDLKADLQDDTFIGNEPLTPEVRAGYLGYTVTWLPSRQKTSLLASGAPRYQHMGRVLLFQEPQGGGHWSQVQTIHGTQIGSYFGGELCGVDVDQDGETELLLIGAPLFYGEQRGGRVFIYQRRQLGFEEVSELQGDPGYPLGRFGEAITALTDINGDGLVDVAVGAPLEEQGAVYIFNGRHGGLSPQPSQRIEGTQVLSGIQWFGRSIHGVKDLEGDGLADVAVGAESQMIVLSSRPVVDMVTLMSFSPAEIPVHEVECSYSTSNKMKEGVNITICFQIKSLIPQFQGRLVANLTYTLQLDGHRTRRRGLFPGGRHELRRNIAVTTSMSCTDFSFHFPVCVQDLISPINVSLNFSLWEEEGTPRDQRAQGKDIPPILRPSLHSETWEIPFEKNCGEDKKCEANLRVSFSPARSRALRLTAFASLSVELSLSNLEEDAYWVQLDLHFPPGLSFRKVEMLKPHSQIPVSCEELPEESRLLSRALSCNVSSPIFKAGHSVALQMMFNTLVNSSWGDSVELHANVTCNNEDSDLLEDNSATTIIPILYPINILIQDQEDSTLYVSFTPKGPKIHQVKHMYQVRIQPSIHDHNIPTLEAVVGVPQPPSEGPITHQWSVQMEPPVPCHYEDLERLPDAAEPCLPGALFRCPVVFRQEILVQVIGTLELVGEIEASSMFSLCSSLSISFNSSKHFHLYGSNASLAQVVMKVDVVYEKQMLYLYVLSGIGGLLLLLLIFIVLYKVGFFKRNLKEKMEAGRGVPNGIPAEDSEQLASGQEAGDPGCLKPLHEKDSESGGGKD
Intercellular adhesion molecule (ICAM-1), Integrin alpha-L/beta-2, sequence (P05362 whole entry, further chain): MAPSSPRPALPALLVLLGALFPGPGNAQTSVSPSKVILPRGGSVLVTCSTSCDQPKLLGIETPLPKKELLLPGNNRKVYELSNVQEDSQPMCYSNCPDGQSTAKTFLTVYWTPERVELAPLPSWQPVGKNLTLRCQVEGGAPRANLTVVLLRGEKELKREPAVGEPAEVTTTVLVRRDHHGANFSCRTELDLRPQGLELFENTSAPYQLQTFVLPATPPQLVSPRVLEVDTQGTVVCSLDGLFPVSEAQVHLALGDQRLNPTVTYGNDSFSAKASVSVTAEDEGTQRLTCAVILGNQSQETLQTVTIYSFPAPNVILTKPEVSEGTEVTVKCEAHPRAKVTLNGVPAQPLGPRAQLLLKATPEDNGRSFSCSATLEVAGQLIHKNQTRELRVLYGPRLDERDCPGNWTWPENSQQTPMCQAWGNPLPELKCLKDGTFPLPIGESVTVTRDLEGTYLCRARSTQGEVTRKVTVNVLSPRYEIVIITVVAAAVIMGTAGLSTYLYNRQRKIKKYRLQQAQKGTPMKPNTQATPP
Intercellular adhesion molecule (ICAM-1), Integrin alpha-L/beta-2, sequence (P05107 whole entry): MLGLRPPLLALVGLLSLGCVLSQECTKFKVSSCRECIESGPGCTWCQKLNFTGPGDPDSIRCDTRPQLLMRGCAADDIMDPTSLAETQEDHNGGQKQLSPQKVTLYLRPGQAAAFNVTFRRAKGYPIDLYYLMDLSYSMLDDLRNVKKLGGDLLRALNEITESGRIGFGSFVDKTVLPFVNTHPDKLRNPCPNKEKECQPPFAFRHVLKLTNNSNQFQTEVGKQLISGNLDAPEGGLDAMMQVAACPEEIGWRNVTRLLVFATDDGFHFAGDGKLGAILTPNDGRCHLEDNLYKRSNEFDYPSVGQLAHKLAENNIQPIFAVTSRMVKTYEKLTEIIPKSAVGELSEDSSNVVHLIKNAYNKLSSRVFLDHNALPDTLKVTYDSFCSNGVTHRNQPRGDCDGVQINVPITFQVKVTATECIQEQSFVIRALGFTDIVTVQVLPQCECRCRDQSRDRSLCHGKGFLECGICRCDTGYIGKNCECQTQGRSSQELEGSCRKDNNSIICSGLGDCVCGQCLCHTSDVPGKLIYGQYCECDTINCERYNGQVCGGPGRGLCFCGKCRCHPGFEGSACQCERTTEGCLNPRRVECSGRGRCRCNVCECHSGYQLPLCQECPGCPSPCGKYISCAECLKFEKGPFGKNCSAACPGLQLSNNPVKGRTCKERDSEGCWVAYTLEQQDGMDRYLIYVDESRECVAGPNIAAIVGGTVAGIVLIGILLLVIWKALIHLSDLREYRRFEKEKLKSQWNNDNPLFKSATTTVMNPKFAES

The experiment concerns the target Intercellular adhesion molecule (ICAM-1), Integrin alpha-L/beta-2 (Homo sapiens, UniProt P05107+P20701). In words: Inhibitory concentration against integrin LFA-1/ICAM-1 binding complex. The experiment is classed as protein-complex assay.
The term IC50 denotes the concentration that inhibits the measured activity by half. A low value points to inhibition by little substance. On to `CCN(C)c1cc(-c2ccc(Sc3ccccc3C(C)C)c(C(F)(F)F)c2)ncn1`, for which the IC50 came to 680 nM. In turn, `COc1ccccc1Sc1ccc(-c2ccnc(N3C[C@H](O)C[C@H]3C(=O)O)c2)cc1C(F)(F)F` returned an IC50 of 214 nM.

The compound `CC(C)c1ccccc1Sc1ccc(-c2ccnc(N3CCC(O)CC3)c2)cc1C(F)(F)F` came in with an IC50 of 76 nM.

In turn, `CCN(CC)C(=O)C1CCCN(c2cc(-c3ccc(Sc4ccccc4C(C)C)c(C(F)(F)F)c3)ncn2)C1` (configuration not stated) had an IC50 of 620 nM. This IC50 lies about 8.2-fold higher than the previous one. Next, `CC(C)c1ccccc1Sc1ccc(-c2cc(N3CCC(C(N)=O)CC3)ncn2)cc1C(F)(F)F`: 230 nM; `CC(C)c1ccccc1Sc1ccc(-c2cc(N3CCCC3CO)ncn2)cc1C(F)(F)F` (stereo in doubt): 480 nM; `CC(C)c1ccccc1Sc1ccc(-c2ccnc(N3CCCCC3)c2)cc1C(F)(F)F`: 1000 nM. With `COc1ccccc1Sc1ccc(-c2ccnc(N3CCC(C(=O)O)CC3)c2)cc1C(F)(F)F` the figure was 113 nM; with `OCC1CCN(c2cc(-c3ccc(Sc4ccc5c(c4)OCCO5)c(C(F)(F)F)c3)ccn2)CC1`, 390 nM; with `CC(C)c1ccccc1Sc1ccc(-c2cc(N3CCC(O)CC3)ncn2)cc1C(F)(F)F`, 228 nM.

As for `COc1ccccc1Sc1ccc(-c2ccnc(N3CCCN(C(C)=O)CC3)c2)cc1C(F)(F)F`, the 50% inhibitory concentration (IC50) amounted to 168 nM. The IC50 values of the last two compounds are within 1.5-fold of each other.

Turning to `CC(C)c1ccccc1Sc1ccc(-c2coc(N3CCCCC3)n2)cc1C(F)(F)F`, the IC50 was determined as 15000 nM.

The compound `OC[C@H]1CCCN1c1cc(-c2ccc(Sc3ccc4c(c3)OCCO4)c(C(F)(F)F)c2)ccn1` gave an IC50 of 510 nM. Compared with the last compound, the IC50 is about 29-fold lower. In turn, `COc1ccccc1Sc1ccc(-c2ccnc(N3CCN(C=O)CC3)c2)cc1C(F)(F)F` showed an IC50 of 186 nM. Compound `OC1CCN(c2cc(-c3ccc(Sc4ccc5c(c4)OCCO5)c(C(F)(F)F)c3)ccn2)CC1` registered an IC50 of 300 nM. With `CC(=O)NC1CCN(c2cc(-c3ccc(Sc4ccccc4C(C)C)c(C(F)(F)F)c3)ncn2)C1` (configuration not stated) the figure was 220 nM; with `CC(C)c1ccccc1Sc1ccc(-c2cc(N3CCC(CCO)CC3)ncn2)cc1C(F)(F)F`, 230 nM; with `CC(C)c1ccccc1Sc1ccc(-c2cc(N3CC[C@@H](O)C3)ncn2)cc1C(F)(F)F`, 158 nM. Next, `CC(C)c1ccccc1Sc1ccc(-c2ccnc(N3CCC(c4nnn[nH]4)CC3)c2)cc1C(F)(F)F`: 51 nM; `OCCC1CCN(c2cc(-c3ccc(Sc4ccc5c(c4)OCCO5)c(C(F)(F)F)c3)ccn2)CC1`: 132 nM. With `O=C(O)[C@@H]1CCCN1c1cc(-c2ccc(Sc3ccc4c(c3)OCCO4)c(C(F)(F)F)c2)ccn1` the figure was 147 nM.

`COc1ccccc1Sc1ccc(-c2ccnc(N3CCCC(C(=O)O)C3)c2)cc1C(F)(F)F` (configuration not stated) showed an IC50 of 122 nM. Next, `COc1ccccc1Sc1ccc(-c2ccnc(N3CCC(C(N)=O)CC3)c2)cc1C(F)(F)F`: 140 nM.

Take `CC1CN(c2cc(-c3ccc(Sc4ccccc4C(C)C)c(C(F)(F)F)c3)ncn2)CC(C)O1` (configuration not stated): the IC50 turned out to be 490 nM. This IC50 is about 3.5-fold higher than that of the compound before.

For `CC(C)c1ccccc1Sc1ccc(-c2ccnc(N3CCC(C(=O)O)CC3)c2)cc1C(F)(F)F`, the IC50 was 42 nM and 50 nM. Next, `CC(C)c1ccccc1Sc1ccc(-c2cc(N3CCC(C(=O)O)CC3)ncn2)cc1C(F)(F)F`: 120 nM; `CC(=O)N[C@@H]1CCN(c2cc(-c3ccc(Sc4ccccc4C(C)C)c(C(F)(F)F)c3)ccn2)C1`: 62 nM; `CC(C)c1ccccc1Sc1ccc(-c2cc(N3CCOCC3)ncn2)cc1C(F)(F)F`: 80 nM and 320 nM. With `CC(C)c1ccccc1Sc1ccc(-c2ccnc(N3CCC[C@H]3CO)c2)cc1C(F)(F)F` (stereo in doubt) the figure was 480 nM; with `COc1ccccc1Sc1ccc(-c2ccnc(N3CC[C@@H](NC(C)=O)C3)c2)cc1C(F)(F)F`, 88 nM; with `CC(C)c1ccccc1Sc1ccc(-c2ccnc(N3CCC(CO)CC3)c2)cc1C(F)(F)F`, 160 nM. Consider `CC(C)c1ccccc1Sc1ccc(-c2ccnc(N3CCC(C(N)=O)CC3)c2)cc1C(F)(F)F`, for which the IC50 was 73 nM. Next, `NC(=O)C1CCN(c2cc(-c3ccc(Sc4ccc5c(c4)OCCO5)c(C(F)(F)F)c3)ccn2)CC1`: 140 nM; `CC(C)c1ccccc1Sc1ccc(-c2cc(NCCCn3ccnc3)ncn2)cc1C(F)(F)F`: 760 nM. In turn, `O=C(O)C1CCCN(c2cc(-c3ccc(Sc4ccc5c(c4)OCCO5)c(C(F)(F)F)c3)ccn2)C1` (stereo in doubt) returned an IC50 of 30 nM. As for `CC(C)c1ccccc1Sc1ccc(-c2ccnc(N3CCCC(C(=O)O)C3)c2)cc1C(F)(F)F` (stereo in doubt; 16k), the IC50 worked out at 43 nM. With `CC(C)c1ccccc1Sc1ccc(-c2cc(N3CCCC(CO)C3)ncn2)cc1C(F)(F)F` (configuration not stated) the figure was 230 nM. Next, `O=C(O)C1CCCN(c2cc(-c3ccc(Sc4ccc5c(c4)OCCO5)c(C(F)(F)F)c3)ccn2)C1` (stereo in doubt; 18L): 76 nM; `COc1ccccc1Sc1ccc(-c2ccnc(N3CCC(CCO)CC3)c2)cc1C(F)(F)F`: 111 nM; `O=CN1CCN(c2cc(-c3ccc(Sc4ccc5c(c4)OCCO5)c(C(F)(F)F)c3)ccn2)CC1`: 351 nM. The compound `CCCN1CCN(c2cc(-c3ccc(Sc4ccccc4OC)c(C(F)(F)F)c3)ccn2)CC1` yielded an IC50 of 900 nM. Next, `CC(=O)N(C)[C@@H]1CCN(c2cc(-c3ccc(Sc4ccccc4C(C)C)c(C(F)(F)F)c3)ccn2)C1`: 112 nM; `CC(=O)N1CCN(c2cc(-c3ccc(Sc4ccc5c(c4)OCCO5)c(C(F)(F)F)c3)ccn2)CC1`: 131 nM and 60 nM; `CC(C)c1ccccc1Sc1ccc(-c2cc(N(C)C(C)C)ncn2)cc1C(F)(F)F`: 740 nM.

In turn, `CCN(C(C)=O)C1CCN(c2cc(-c3ccc(Sc4ccccc4C(C)C)c(C(F)(F)F)c3)ncn2)C1` (configuration not stated) showed an IC50 of 300 nM. `CC(C)c1ccccc1Sc1ccc(-c2ccnc(N3CCCC(C(=O)O)C3)c2)cc1C(F)(F)F` (stereo in doubt) came in with an IC50 of 30 nM. With `CC(C)c1ccccc1Sc1ccc(-c2ccnc(N3CC[C@@H](O)[C@H](C(=O)O)C3)c2)cc1C(F)(F)F` the figure was 43 nM; with `CCCN1CCN(c2cc(-c3ccc(Sc4ccc5c(c4)OCCO5)c(C(F)(F)F)c3)ccn2)CC1`, 747 nM; with `CC(=O)N(C)[C@@H]1CCN(c2cc(-c3ccc(Sc4ccc5c(c4)OCCO5)c(C(F)(F)F)c3)ccn2)C1`, 168 nM. With `CC(C)c1ccccc1Sc1ccc(-c2coc(N3CCOCC3)n2)cc1C(F)(F)F` the figure was 3600 nM; with `COc1ccccc1Sc1ccc(-c2ccnc(N3CCC[C@H]3C(=O)O)c2)cc1C(F)(F)F`, 80 nM. Next, `CC(C)c1ccccc1Sc1ccc(-c2ccnc(N3CCCC3)c2)cc1C(F)(F)F`: 250 nM. For `CC(C)c1ccccc1Sc1ccc(-c2ccnc(N3C[C@H](O)C[C@H]3C(=O)O)c2)cc1C(F)(F)F`, the IC50 was 90 nM.

`CC(C)c1ccccc1Sc1ccc(-c2cc(N3CCC(c4nn[nH]n4)CC3)ncn2)cc1C(F)(F)F` came in with an IC50 of 108 nM. The IC50 values of the last two compounds are within 1.5-fold of each other.

In the case of `CC(=O)N1CCCN(c2cc(-c3ccc(Sc4ccc5c(c4)OCCO5)c(C(F)(F)F)c3)ccn2)CC1`, the IC50 stood at 365 nM. With `COc1ccccc1Sc1ccc(-c2ccnc(N3CCN(C(C)=O)CC3)c2)cc1C(F)(F)F` the figure was 121 nM; with `CC(=O)N1CCN(C(=O)/C=C/c2ccc(Sc3ccccc3C(C)C)c(C(F)(F)F)c2)CC1`, 60 nM.
